Reference: PMC8348996, “pH-sensitive dual drug loaded janus nanoparticles by oral delivery for multimodal analgesia” (Journal of Nanobiotechnology, 2021)
Where two headings read alike, the source gives them in different places.

Experiments:
[1] = SPIP, n = 3
Method: SPIP was performed to determine the absorption and enterocytic uptake of the nanoparticles. The abdominal cavity of SD rats were opened along the midline of the abdomen to expose the intestinal tissue. The jejunum, ileum, duodenum, and colon segments were measured, and incisions were made at both ends of these segments. Both ends of the incision were intubated and fixed using ligation. The wounds were covered with an absorbent cotton soaked in normal saline and maintained at 37 °C. […] After 60 min, the jejunum, ileum, duodenum, and colon were dehydrated to create frozen Sects. (10 μm). These sections were observed using CLSM, and the fluorescence intensity of each section was quantified.

[2] = In vitro release behavior by dialysis in SGF (pH 1.2) and PBS (pH 7.4); format: physicochemical
Method: The release behavior of αCT and Res in vitro was investigated through dialysis. […] The release medium was SGJ (pH 1.2) containing 2% sodium dodecyl sulfate (w/v) and 30 mL PBS (pH 7.4). The release behavior of drugs from JNP was studied under the conditions of 37 ± 0.5 °C and a rotating speed of 100 rpm. At fixed time points (0, 0.25, 0.5, 0.75, 1.0, 1.5, and 2.0 h in SGJ; 0, 0.25, 0.5, 1.0, 2,0, 4.0, 6.0, 8.0, 10.0, 12.0, and 24.0 h in PBS), 1 mL of release medium was removed, and a blank release medium with the same volume and temperature was supplemented. The samples were filtered through a 0.22-μm microporous membrane, and the supernatant was obtained after high-speed centrifugation. The αCT and Res content were determined using HPLC. The cumulative release percentage was calculated, and a release curve was obtained. The formula for cumulative drug release is shown in the following equation, where Ct is the content of two drugs at each sampling point, V0 is the volume of the release medium, V is the sampling volume, and M0 is the initial dosage:3 Cumulative release%=Ct×V0+∑n=1t-1C×V/M0×100%

[3] = Lymphatic transport in mesenteric lymph-cannulated rats; format: in vivo, SD rats
Method: The methods of mesenteric lymphatic intubation were based on previous studies. Briefly, SD rats (300–350 g) were given 2 mL peanut oil via gavage 1 h before administration to induce lymphoid production. One hour later, the animals were anesthetized via intraperitoneal injection of 50 mg·kg^−1 pentobarbital sodium. The rats were placed in the supine position on the ventral side and their limbs were fixed. A midline abdominal incision (approximately 4 cm long) was made at 2/3 of the line connecting the xiphoid and pubic symphysis. […] The trunk of the mesenteric lymphatic vessels (approximately 1 cm) was then separated. A 4-mm PE-25 pipe with a PE-50 hose was connected, the joint of each pipe was fully fixed, and the pipe was filled with 1% EDTA-2Na. […] A small incision was made in the mesenteric lymphatic vessel, and the PE-25 tube end was intubated. When the lymphatic fluid completely filled the tube and drained smoothly, the intubation site was fixed. After resuscitation, the rats were allowed to drink 5% glucose solution freely and recover overnight.

in vivo = experiment: in vivo; set-up: species or system SD rats
Method: SD rats fasted but drank water freely for 24 h before administration. The dosage of JNP group was 50 µg·kg ^−1 (calculated using αCT), and the other groups were converted according to the ratio of their drug loading to αCT. After intragastric administration, blood samples were collected at 0.25, 0.5, 1, 4, 8, 12, and 24 h. […] PKSolver software (V2.0, China Pharmaceutical University, China) was used to process the data, compare the blood PK parameters of each group after administration, and generate the drug concentration–time curve.

[4] = system: Caco-2/HT29-MTX/Raji monolayers; experiment: Trans-monolayer transport; format: in vitro ADME; conditions: Caco2-HT29/MTX-Raji cell model, AP to BL, 4 h
Method: (§1) Caco-2, Caco-2/HT29-MTX (7/3), and Caco-2/HT29-MTX/Raji cell models were established for the trans-monolayer transport study, as previously described. The assay was carried out from the AP side (pH 6.5) to the BL side (pH 7.4) using HBSS-HEPES buffer. […] At 0, 0.5, 1, 2, and 4 h, a certain amount of sample was taken from the basolateral compartment, and the same volume of HBSS-HEPES buffer was added.

Caco-2 monolayers = experiment: Trans-monolayer transport; format: in vitro ADME; conditions: Caco-2 cell model, AP to BL, 4 h
Method: as §1

[5] = system: Caco-2/HT29-MTX monolayers; experiment: Trans-monolayer transport; format: in vitro ADME; conditions: Caco2-HT29/MTX cell model, AP to BL, 4 h
Method: as §1

[6] = humans and animals; cited from earlier work
trypsin = target: T1, trypsin (Sus scrofa, UniProt P00761); experiment: Stability in SIF containing 0.2% trypsin (residual drug content); format: in vitro ADME; conditions: SIF with 0.2% trypsin, 37 °C, first hour
T1 construct: purchased Gibco Invitrogen Co. (Carlsbad, USA)
T1 sequence (P00761 9-231): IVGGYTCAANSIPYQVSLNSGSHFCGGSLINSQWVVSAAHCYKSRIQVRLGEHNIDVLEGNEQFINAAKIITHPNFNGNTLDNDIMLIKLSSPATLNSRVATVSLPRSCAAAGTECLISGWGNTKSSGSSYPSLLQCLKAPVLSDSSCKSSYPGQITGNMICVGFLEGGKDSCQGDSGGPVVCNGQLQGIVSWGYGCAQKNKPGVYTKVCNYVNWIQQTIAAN
Method: The effect of trypsin on the stability of αCT/Res-JNPs was also evaluated. αCT/Res-JNPs were centrifuged at 20,000 rpm at 4 °C for 30 min, and then resuspended in SIF. The control group was treated with αCT solution and Res solution. SIFs and trypsin (0.2%, w/v) were mixed at 37 °C for 2 h. At predetermined time points (15, 30, 60, and 120 min), HCl solution (0.1 M) was added to terminate the trypsin activity. Subsequently, dichloromethane was added to dissolve the organic phase contained in the JNP solution. The pH of the solution was then adjusted to 4.0 using hydrochloric acid to dissolve the internal aqueous phase of the JNP. Subsequently, samples were collected, and the contents of residual αCT and Res in the JNP samples were analyzed via HPLC.

Caco-2 cells [7] = experiment: Mechanism of cell uptake with specific endocytosis inhibitors (flow cytometry); format: cell-based; conditions: inhibitor 0.5 h, then FITC-αCT-JNP or FITC-αCT/Res-JNP 2 h; uptake without inhibitor = 100%
Method: The mechanism of cell uptake was also investigated. Caco-2 cells in the logarithmic growth phase were seeded in 6-well plates at 3 × 10^5 cells/well and incubated for 48 h. Chlorpromazine (10 μg/mL), genistein (54 μg/mL), amiloride (12 μg/mL), and nocodazole (300 μg/mL) were added to the individual wells as inhibitors and were incubated for 0.5 h. FITC-αCT-JNP and FITC-αCT/Res-JNP were then added and the wells were incubated for another 2 h. The cells were then collected using trypsin and centrifuged at 1000 rpm for 5 min. Cells without any inhibitors were used as controls. Fluorescence intensity was detected using flow cytometry (FACSJazz, BD, USA).

HT29/MTX cells = experiment: Cellular uptake of FITC-αCT observed by CLSM; format: cell-based; conditions: 6 h incubation, 1:20 dilution
Method: (§2) Cell culture was carried out according to previously described procedures. HT-29/MTX and Caco-2 cells were seeded into 24-well plates at a density of 1 × 10^5 cells/well and 6 × 10^4 cells/well, respectively. After the cells adhered onto each well, the culture medium was discarded, and three types of samples (FITC-αCT, FITC-αCT-JNP, or FITC-αCT/Res-JNP) at 1:20 dilutions were added. After 6 h, the liquid in the wells was discarded, and the cells were washed with PBS. Each well was fixed with 4% (v/v) paraformaldehyde (0.5 mL) for 20 min, and rinsed with PBS. The cells were then incubated with 0.1% Triton X-100 for 10 min to permeabilize the cell membrane, and then incubated with DAPI for 10 min. After sealing, it was observed using CLSM.

Caco-2 cells [8] = experiment: Cellular uptake of FITC-αCT observed by CLSM; format: cell-based; conditions: 6 h incubation, 1:20 dilution
Method: as §2

animal models = conditions: cited from earlier work
[9] = PBS pH 7.4, time point not stated
[10] = Sprague-Dawley, rat, in vivo, po
[11] = rats, intragastric, 50 µg·kg^−1 as αCT, plasma FITC-αCT, n = 5

## Oc1ccc(/C=C/c2cc(O)cc(O)c2)cc1 [Res, Resveratrol]
[1]; colon
  Ka of Res: 1.01 ± 0.26 × 10^–2 min^−1
  Peff of Res: 1.60 ± 0.44 × 10^–3 cm·min^−1
[1]; duodenum
  Ka of Res: 0.99 ± 0.11 × 10^–2 min^−1
  Peff of Res: 1.58 ± 0.18 × 10^–3 cm·min^−1
[1]; ileum
  Ka of Res: 1.91 ± 0.66 × 10^–2 min^−1
  Peff of Res: 3.26 ± 1.26 × 10^–3 cm·min^−1
[1]; jejunum
  Ka of Res: 1.55 ± 0.26 × 10^–2 min^−1
  Peff of Res: 2.57 ± 0.46 × 10^–3 cm·min^−1
[2]; [9]
  release of Res in PBS: 86.71%
[2]; SGF pH 1.2 with 2% sodium dodecyl sulfate, within 1 h
  release rate of Res: 93.76%
[3]
  time after which Res was no longer detected in lymph: 4 h
In vivo; [10]
  AUC(0-t): 84.6 ± 3.8 ng·h/mL
  Cmax: 92.1 ± 8 ng/mL
  MRT last: 1.56 ± 0.52 h
  half-life: 1.09 ± 0.07 h
In vivo; Sprague-Dawley, rat, in vivo, po, time of peak concentration of Res, rats, intragastric
  Tmax: 0.167 h
In vivo; rats, intragastric, plasma Res, n = 5
  AUMCt of Res: 118.18 ± 19.08 ng/ml*h^2
[4]
  cumulative transport: approximately 14%
Caco-2 monolayers
  cumulative transport of Res: approximately 14%
[5]
  cumulative transport: approximately 6%
[6]
  oral bioavailability: almost zero
trypsin
  residual amount of Res: 47.23%

## N=C(N)NC(=O)c1nc(Cl)c(N)nc1N [amiloride]
Caco-2 cells [7]
  effect of endocytosis inhibitor on uptake rate of JNP by Caco-2 cells: significantly reduced the uptake rate of JNP

## CN(C)CCCN1c2ccccc2Sc2ccc(Cl)cc21 [chlorpromazine]
Caco-2 cells [7]
  effect of endocytosis inhibitor on uptake rate of JNP by Caco-2 cells: significantly reduced the uptake rate of JNP

## O=c1c(-c2ccc(O)cc2)coc2cc(O)cc(O)c12 [genistein]
Caco-2 cells [7]
  effect of endocytosis inhibitor on uptake rate of JNP by Caco-2 cells: did not significantly inhibit the cellular uptake of JNP

## COC(=O)Nc1nc2ccc(C(=O)c3cccs3)cc2[nH]1 [nocodazole]
Caco-2 cells [7]
  effect of endocytosis inhibitor on uptake rate of JNP by Caco-2 cells: did not significantly inhibit the cellular uptake of JNP

## FITC-αCT: αCT labeled with fluorescein isothiocyanate (FITC)
HT29/MTX cells
  cellular uptake of FITC-αCT (green fluorescence, CLSM): no obvious green fluorescence
Caco-2 cells [8]
  cellular uptake of FITC-αCT (green fluorescence, CLSM): no obvious green fluorescence
[4]
  cumulative transport: approximately 4%
Caco-2 monolayers
  cumulative transport of FITC-αCT: approximately 3%
[5]
  cumulative transport: approximately 4%

## α-Cobrotoxin [αCT]
Animal models; high dose 100 μg·kg^−1, intraperitoneal injection
  effect on pain sensitivity: significantly enhance pain sensitivity
Animal models; low dose, animal models
  effect on pain threshold and action ability: improve the pain threshold and action ability
[1]; colon
  Ka of αCT: 0.85 ± 0.14 × 10^–2 min^−1
  Peff of αCT: 1.34 ± 0.23 × 10^–3 cm·min^−1
[1]; duodenum
  Ka of αCT: 0.81 ± 0.11 × 10^–2 min^−1
  Peff of αCT: 1.27 ± 0.19 × 10^–3 cm·min^−1
[1]; ileum
  Ka of αCT: 0.91 ± 0.03 × 10^–2 min^−1
  Peff of αCT: 1.44 ± 0.05 × 10^–3 cm·min^−1
[1]; jejunum
  Ka of αCT: 0.98 ± 0.05 × 10^–2 min^−1
  Peff of αCT: 1.56 ± 0.10 × 10^–3 cm·min^−1
[2]; [9]
  release of αCT in PBS: 67.89%
[2]; SGF pH 1.2, 2 h, 37 °C
  cumulative release of αCT: approximately 40.17%
[3]
  time after which αCT was no longer detected in lymph: 6 h
In vivo; rats, intragastric
  t1/2 of αCT: 0.17 ± 0.03 h
  time of peak concentration of αCT: about 30 min
In vivo; [11]
  AUCt of αCT: 67.65 ± 17.91 ng·h/mL
  AUMCt of αCT: 112.44 ± 12.97 ng/ml*h^2
  Cmax of αCT: 26.85 ± 3.00 ng/mL
  Tmax of αCT: 0.5 h
  t1/2β of αCT: 2.69 ± 0.36 h
trypsin
  residual amount of αCT: 25.60%
